Experimental findings from patent US20150141460A1, “Anti-inflammatory Compositions” (Cambridge Enterprise Limited, priority 2007, published 2015) are described below.

Assay [1] relates to CD4+ splenocytes (IFN-γ / IL-4). The assay can be described thus: Ovalbumin-induced model of asthma, T-helper cell polarisation (Th1/Th2 ratio) of CD4+ splenocytes by flow cytometry. It counts as in vivo, Brown Norway rats. Conditions: 0.3 mg/kg daily via the oral route. An excerpt: Bars represent mean Th1/Th2 ratios, shown on the Y-axis, for groups of 10 animals, whiskers represent SEM; * p<0.05 versus unchallenged rats; † p<0.05 versus sensitised and challenged rats, in both cases using Student's unpaired t-test assuming equal variance, with two tails). All rats (except the ‘BN rats’ group, which was not exposed to ovalbumin) received the same sensitisation and challenge regimen, but were either treated with vehicle only (‘Sensitised+vehicle’), or with compound (I′) at 0.3 mg/kg bodyweight or with monteleukast (‘Singulair™’) at 30 mg/kg bodyweight, all administered daily by oral gavage.
Adult Brown Norway rats (200-300 g body weight; n=10 per group) were sensitised by a single intraperitoneal injection of 0.1 mg Ovalbumin on day 0. Each rat then received an intratracheal challenge with a solution of 1% ovalbumin (w/v) on day 8, and with 2% ovalbumin (w/v) on days 15, 18 and 21. The animals were then sacrificed 3 hours after the final challenge on day 21. […]
The spleen was also removed from each […] and placed in RPMI+10% FCS+antibiotics. […] The resulting cell suspension was then centrifuged (328 g; 5 mins) and washed in RPMI+10% FCS+antibiotics, before being resuspended in fresh media and counted using a haemocytometer. […]

The subject of assay [2] is chemokine-induced migration. As to the kind of experiment: BSCI potency: inhibition of chemokine-induced migration in vitro (general statements). Type of assay: cell-based.
Assay [3] deals with target receptor (site of specific interaction of BN83250) (Homo sapiens, UniProt P30874). The assay can be described thus: Competition for binding of [3H]-BN83250 to the target receptor on human myelomonocytic cell line. The following applies: competition with 10 nM [3H]-BN83250; non-linear modelling. Here is the method:
In this experiment, each reaction received 10 nM labelled BN83250 (a lactam BSCI which binds to the same receptor as compound (I′)), together with various competitors (100 μM-1 pM). The total specific binding was the amount displaced by a large excess (100 μM). Each bar represents the mean of three replicate determinations, with whiskers representing SEM. The Y-axis represents the radioactive counts bound in each experiments in units of counts per minute (cpm). The upper dashed line represents the total binding under the conditions of the experiment, while the lower dashed line represents the non-specific binding; the specific binding is represented by the distance between the dashed lines.
The general pharmacology of the five compounds was assessed, both against the specific target receptor, and against a wide variety of other receptors, many related in structure to the target receptor. Specific binding to the target receptor was assessed by competition for the binding of [^3H]-BN83250 (BN83250 is (S)-3-(2′,2′-dimethyldodecanoylamino)-caprolactam; Fox et al. J Med Chem. […]; 48(3):867-74; an agent known to bind to the same target receptor as the lactam BSCIs disclosed here). Binding to non-target receptors was assessed by competition for the binding of various specific radioligands for other receptors which are well known in the art. […]

Sequence of target receptor (site of specific interaction of BN83250) (P30874 whole entry): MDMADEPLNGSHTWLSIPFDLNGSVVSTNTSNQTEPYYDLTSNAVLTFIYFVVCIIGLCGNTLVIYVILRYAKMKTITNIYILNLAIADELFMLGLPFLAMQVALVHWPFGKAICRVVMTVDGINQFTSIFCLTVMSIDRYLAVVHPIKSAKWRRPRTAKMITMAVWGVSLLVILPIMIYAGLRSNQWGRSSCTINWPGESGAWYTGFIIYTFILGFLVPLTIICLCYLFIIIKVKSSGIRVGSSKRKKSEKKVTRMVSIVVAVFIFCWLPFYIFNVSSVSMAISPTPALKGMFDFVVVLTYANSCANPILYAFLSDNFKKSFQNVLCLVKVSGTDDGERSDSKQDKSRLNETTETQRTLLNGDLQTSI

For the compound `CC(C)(C)C(=O)N[C@H]1CCCNC1=O` [Compound (I′), (S)-3-(2′,2′-dimethylpropanoylamino)-tetrahydropyridin-2-one], in assay [1], the “effect on Th2 polarisation (Th1/Th2 ratio)” value is on record as “significantly reversed the Th2 polarisation”. Further, the “potency as a BSCI, fold more potent than the (R)-enantiomer” value in assay [2] was 5-25 fold. Also, the “Ka at target receptor (pM)” value in assay [3] came out at 50 pM.
